How the values were obtained:
OR5AN1 = biological target: T1, OR5AN1 (Homo sapiens, UniProt Q8NGI8); assay: Luciferase reporter gene assay, OR5AN1-expressing HEK293 cells; format: cell-based; details: 0.3 μM to 100 μM, vs Mock cells, FIG. 3
T1 construct: expressed in transfected cells; host or cells: HEK293
T1 sequence (Q8NGI8 1-311): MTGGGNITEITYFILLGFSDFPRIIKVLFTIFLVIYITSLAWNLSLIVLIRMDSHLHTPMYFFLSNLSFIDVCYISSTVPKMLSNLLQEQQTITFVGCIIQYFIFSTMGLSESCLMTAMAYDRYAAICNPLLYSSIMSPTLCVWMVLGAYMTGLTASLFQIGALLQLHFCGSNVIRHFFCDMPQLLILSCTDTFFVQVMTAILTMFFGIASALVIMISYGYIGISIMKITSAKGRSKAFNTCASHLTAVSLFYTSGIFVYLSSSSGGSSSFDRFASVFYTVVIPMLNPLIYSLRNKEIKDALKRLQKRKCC
Source text: (§1) On the basis of sequence information registered in GenBank, genes respectively encoding 370 human olfactory receptors shown in Tables 1-1 and 1-2 and genes respectively encoding the human olfactory receptors OR5AN1, OR10G4 and OR9Q2 (respectively set forth in SEQ ID NOS: 1, 3 and 5) were cloned. Each of the genes was cloned by the PCR using human genomic DNA person (G1521: Promega) as a template. Each gene amplified by the PCR was incorporated into a pENTR vector (Invitrogen) in accordance with the instruction, and was recombined to NotI and AscI sites produced downstream from a Flag-Rho tag sequence on a pME18S vector by using NotI and AscI sites present on the pENTR vector.
(§2) In 1) of Example 1, HEK293 cells on which the 370 human olfactory receptors were respectively expressed were produced. A reaction solution having a composition shown in Table 2 was prepared and allowed to stand still in a clean bench for 15 minutes, and the resultant was added by 4.4 μL per well in a 384-well plate (BioCoat). Subsequently, the HEK293 cells (20×10^4 cells/cm^2) were seeded by 40 μL per well, and the resultant was cultured for 24 hours in an incubator kept at 37° C. and 5% CO2.
(§3) In 2) of Example 1 and Examples 2 and 3, HEK293 cells in which the human olfactory receptor OR5AN1, OR10G4, OR9Q2 or OR1A1 was expressed were produced. A reaction solution having a composition shown in Table 3 was prepared and allowed to stand still in a clean bench for 15 minutes, and the resultant was added by 10 μL per well in a 96-well plate (BioCoat). Subsequently, the HEK293 cells (3×10^5 cells/cm^2) were seeded by 90 μL per well, and the resultant was cultured for 24 hours in an incubator kept at 37° C. and 5% CO2. Cells obtained under conditions for not expressing the olfactory receptor (Mock) were also prepared to be used as a control, and were used similarly in an experiment.
(§4) The olfactory receptor expressed on the HEK293 cells increases the intracellular cAMP amount by activating adenylate cyclase in conjugation with intracellular Gαs. In the measurement of odor response in this study, luciferase reporter gene assay for monitoring the increase of the intracellular cAMP amount as a luminescence value derived from a firefly luciferase gene (fluc2P-CRE-hygro) was employed. Besides, a fused Renilla luciferase (hRluc-CMV) gene was simultaneously transferred downstream of the CMV promoter, so as to be used as an internal standard for correcting the gene transfer efficiency or an error in the number of cells. For measuring the activity of the luciferase, Dual-Glo(™) Luciferase Assay System (Promega) was used, and the measurement was performed in accordance with the operation instruction of the product. Under each of various stimulation conditions, a value fLuc/hRluc obtained by dividing a firefly luciferase-derived luminescence value by a Renilla luciferase-derived luminescence value was calculated. A value obtained by dividing a value fLuc/hRluc induced by stimulation with an odorous substance by a value fLuc/hRluc of a cell not stimulated with the odorous substance was obtained as fold increase, which was used as an index of the response intensity. A dose-response curve was analyzed using Graph Pad Prism.
(§5) The medium was removed from each of the cultures of the olfactory receptor expressing cells produced according to Reference Example 1, and an odorous substance (muscone, guaiacol or p-cresol) was added thereto. A DMEM medium (Nacalai) containing muscone or guaiacol was added to a 384-well plate containing the culture by 30 μL per well (to a final concentration of muscone of 100 μM and of guaiacol of 1 mM). Alternatively, a CD293 medium (Invitrogen) containing p-cresol was added to a 96-well plate containing the culture by 75 μL per well (to a final concentration of 1 mM). […]

muscone odor = assay: Sensory test of cross-adaptation, target odor muscone; format: in vivo, human; details: panelists, test sample smelled before target sample, FIG. 6A
Protocol: (§6) The cross-adaptation effect induced by the odorous substance evaluated in Example 2 was estimated by a sensory test. A glass bottle (No. 11, manufactured by Hakuyo Glass Co., Ltd., capacity: 110 mL) was charged with a target odorous substance to be used as a target sample. As the target odorous substance, muscone, guaiacol or p-cresol was used. As the muscone, a cotton ball soaked with 1 mg of muscone was used. As the guaiacol and p-cresol, 1 mL of a mineral oil (Sigma-Aldrich) solution in a concentration of 10 ppm was used. In a similar manner, a glass bottle was charged with a test substance to be used as a test sample. As the test sample, 5 mg of an ethyl vanillin powder, or 1 mL of a mineral oil (Sigma-Aldrich) solution of p-cresyl acetate, p-cresyl isobutyrate or p-methyl quinoline prepared to a concentration of 1,000 ppm was used.
(§7) The sensory test was performed by a single blind method by five to eight panelists. The target sample was first presented to each panelist, who was caused to replay on the odor intensity. Next, the test sample was presented for 2 minutes or until the odor could not be perceived. Thereafter, the target sample was presented again, and the panelist was caused to replay on the odor intensity. This series of operations was defined as one set, and the sensory test was carried out with four sets per day per panelist set as the upper limit. A recess of at least 10 minutes or more was provided between the sets.
The panelist was caused to plot the estimated intensity of the target odor on a straight line of 9.5 cm with both ends respectively provided with criteria “No odor” and “Strong odor”. A distance (A) between the position of the target odor intensity plotted in the initial estimate and the end of “No odor”, and a distance (B) between the position of the target odor intensity plotted in the second estimate and the end of “No odor” were obtained, so as to calculate percentage odor intensity of the initial estimate [B/A*100−100]. […]

OR1A1 = biological target: T2, OR1A1 (Homo sapiens, UniProt Q9P1Q5); assay: Luciferase reporter gene assay, OR1A1-expressing HEK293 cells; format: cell-based; details: 0.3 μM to 100 μM, vs Mock cells, FIG. 4
T2 construct: expressed in transfected cells; host or cells: HEK293
T2 sequence (Q9P1Q5 1-309): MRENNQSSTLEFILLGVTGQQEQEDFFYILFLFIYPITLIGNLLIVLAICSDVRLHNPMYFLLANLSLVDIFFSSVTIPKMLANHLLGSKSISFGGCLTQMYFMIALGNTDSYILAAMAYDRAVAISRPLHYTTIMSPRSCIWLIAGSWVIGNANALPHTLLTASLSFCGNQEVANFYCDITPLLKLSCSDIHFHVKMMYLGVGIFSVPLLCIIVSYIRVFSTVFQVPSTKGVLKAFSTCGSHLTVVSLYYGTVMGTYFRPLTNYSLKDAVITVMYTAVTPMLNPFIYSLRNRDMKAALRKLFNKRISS
Source text: as §1, §2
In 2) of Example 1 and Examples 2 and 3, HEK293 cells in which the human olfactory receptor OR5AN1, OR10G4, OR9Q2 or OR1A1 was expressed were produced. […]
The olfactory receptor expressed on the HEK293 cells increases the intracellular cAMP amount by activating adenylate cyclase in conjugation with intracellular Gαs. In the measurement of odor response in this study, luciferase reporter gene assay for monitoring the increase of the intracellular cAMP amount as a luminescence value derived from a firefly luciferase gene (fluc2P-CRE-hygro) was employed. […] Under each of various stimulation conditions, a value fLuc/hRluc obtained by dividing a firefly luciferase-derived luminescence value by a Renilla luciferase-derived luminescence value was calculated. […] A dose-response curve was analyzed using Graph Pad Prism. […]

OR10G4 = biological target: T3, OR10G4 (Homo sapiens, UniProt Q8NGN3); assay: Luciferase reporter gene assay, OR10G4-expressing HEK293 cells; format: cell-based; details: for responsiveness of OR10G4 (fold increase): FIG. 5A, 5C
T3 construct: expressed in transfected cells; host or cells: HEK293
T3 sequence (Q8NGN3 1-311): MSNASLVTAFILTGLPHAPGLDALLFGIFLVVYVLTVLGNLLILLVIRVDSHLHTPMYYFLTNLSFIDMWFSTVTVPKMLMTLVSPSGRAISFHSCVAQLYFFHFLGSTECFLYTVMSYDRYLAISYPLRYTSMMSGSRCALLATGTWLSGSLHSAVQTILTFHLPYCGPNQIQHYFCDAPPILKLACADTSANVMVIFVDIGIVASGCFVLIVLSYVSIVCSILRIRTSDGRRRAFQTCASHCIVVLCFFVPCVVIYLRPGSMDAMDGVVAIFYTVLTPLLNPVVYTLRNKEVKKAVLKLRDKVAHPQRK
Source text: as §1, §2, §3
as §4, with “For measuring the activity of the luciferase, Dual-Glo(™) Luciferase Assay System (Promega) was used, and the measurement was performed in accordance with the operation instruction of the product.” left out, “A value obtained by dividing a value fLuc/hRluc induced by stimulation with an odorous substance by a value fLuc/hRluc of a cell not stimulated with the odorous substance was obtained as fold increase, which was used as an index of the response intensity.” left out, “Prism. […]” for “Prism.”

odor of guaiacol = assay: Sensory test of cross-adaptation, target odor guaiacol; format: in vivo, human; details: panelists, test sample smelled before target sample, FIG. 6B
Protocol: as §6
The sensory test was performed by a single blind method by five to eight panelists. The target sample was first presented to each panelist, who was caused to replay on the odor intensity. Next, the test sample was presented for 2 minutes or until the odor could not be perceived. Thereafter, the target sample was presented again, and the panelist was caused to replay on the odor intensity. This series of operations was defined as one set, and the sensory test was carried out with four sets per day per panelist set as the upper limit. […]

OR9Q2 = biological target: T4, OR9Q2 (Homo sapiens, UniProt Q8NGE9); assay: Luciferase reporter gene assay, OR9Q2-expressing HEK293 cells; format: cell-based; details: for responsiveness of OR9Q2 (fold increase): FIG. 2, 5B, 5C
T4 construct: expressed in transfected cells; host or cells: HEK293
T4 sequence (Q8NGE9 1-314): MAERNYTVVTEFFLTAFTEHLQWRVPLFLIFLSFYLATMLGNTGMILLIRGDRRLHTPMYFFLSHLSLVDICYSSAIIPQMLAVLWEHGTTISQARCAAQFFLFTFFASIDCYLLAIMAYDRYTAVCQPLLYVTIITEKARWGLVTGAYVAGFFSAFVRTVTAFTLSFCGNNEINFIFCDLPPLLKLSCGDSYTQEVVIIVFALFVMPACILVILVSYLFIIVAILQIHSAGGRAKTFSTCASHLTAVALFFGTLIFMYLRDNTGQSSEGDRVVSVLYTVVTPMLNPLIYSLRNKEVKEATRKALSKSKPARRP
Source text: as §1, §2, §3, §4, §5

odor of p-cresol = assay: Sensory test of cross-adaptation, target odor p-cresol; format: in vivo, human; details: panelists, test sample smelled before target sample, FIG. 6C
Protocol: as §6, §7
The panelist was caused to plot the estimated intensity of the target odor on a straight line of 9.5 cm with both ends respectively provided with criteria “No odor” and “Strong odor”. A distance (A) between the position of the target odor intensity plotted in the initial estimate and the end of “No odor”, and a distance (B) between the position of the target odor intensity plotted in the second estimate and the end of “No odor” were obtained, so as to calculate percentage odor intensity of the initial estimate [B/A*100−100]. As this value is smaller, the intensity of the target odor perceived in the second estimate is suppressed stronger as compared with that in the initial estimate, namely, stronger cross-adaptation is induced. If this value is −100%, it means that the target odor was not perceived at all in the second estimate.

## O=C1CCCCC=CCCCCCCCCCO1 [Ambrettolide, 17-oxacycloheptadec-6-en-1-one]
OR5AN1
  activation of OR5AN1 response (fold increase): did not induce the response
Muscone odor
  cross-adaptation of muscone odor induced by test substance: did not induce the cross-adaptation

## CC/C=C\CCO [Cis-3-hexenol]
OR5AN1
  activation of OR5AN1 response (fold increase): did not induce the response
OR1A1
  activation of OR1A1 response (fold increase): activated
Muscone odor
  cross-adaptation of muscone odor induced by test substance: did not induce the cross-adaptation

## O=C1CCCCCCCCCCCCCCO1 [Exaltolide (R), 16-oxacyclohexadecan-1-one]
OR5AN1
  activation of OR5AN1 response (fold increase): activating the response

## O=C1CCCCCCC=CCCCCCCC1 [Globanone, cyclohexadec-8-en-1-one]
OR5AN1
  activation of OR5AN1 response (fold increase): activating the response

## CC(C)(O)CCCC1=CCC(C=O)CC1 [Lyral (R), 4-(4-hydroxy-4-methyl-pentyl)-cyclohex-3-enecarbaldehyde]
OR5AN1
  activation of OR5AN1 response (fold increase): did not induce the response

## CC1CC=CCCCCCCCCCC(=O)C1 (centres unmarked) [Muscenone delta, 3-methyl-5-cyclopentadecen-1-one]
OR5AN1
  activation of OR5AN1 response (fold increase): activating the response

## Cc1c([N+](=O)[O-])c(C)c([N+](=O)[O-])c(C(C)(C)C)c1[N+](=O)[O-] [Musk xylol, 1-tert-butyl-3,5-dimethyl-2,4,6-trinitrobenzene]
OR5AN1
  activation of OR5AN1 response (fold increase): activating the response

## CCOc1cc(C=O)ccc1O [ethyl vanillin, 3-ethoxy-4-hydroxybenzaldehyde]
OR10G4
  responsiveness of OR10G4 (fold increase): had responsiveness
Odor of guaiacol
  cross-adaptation of guaiacol odor induced by test substance: induced

## COc1ccccc1O [guaiacol, 2-methoxyphenol]
OR10G4
  responsiveness of OR10G4 (fold increase): had responsiveness
OR10G4; screen of 370 human olfactory receptors, guaiacol 1 mM, FIG. 1
  responsiveness of OR10G4 among 370 olfactory receptors (response intensity, fold increase): highest responsiveness

## Cc1ccc(O)cc1 [p-cresol, p-Cresol]
OR9Q2
  responsiveness of OR9Q2 (fold increase): have responsiveness
OR9Q2; different concentrations, FIG. 2
  concentration dependency of OR9Q2 response: showed response to p-cresol dependently on the concentration
OR9Q2; screen of 370 human olfactory receptors, p-cresol 1 mM, FIG. 1
  responsiveness of OR9Q2 among 370 olfactory receptors (response intensity, fold increase): highest responsiveness

## CC(=O)Oc1ccc(C)cc1 [p-cresyl acetate, (4-methylphenyl)acetate]
OR9Q2
  responsiveness of OR9Q2 (fold increase): have responsiveness
Odor of p-cresol
  cross-adaptation of p-cresol odor induced by test substance: induced

## Cc1ccc(OC(=O)C(C)C)cc1 [p-cresyl isobutyrate, (4-methylphenyl)2-methylpropanoate]
OR9Q2
  responsiveness of OR9Q2 (fold increase): have responsiveness
Odor of p-cresol
  cross-adaptation of p-cresol odor induced by test substance: induced

## Cc1ccc2ncccc2c1 [p-methyl quinoline, 6-methyl quinoline]
OR9Q2
  responsiveness of OR9Q2 (fold increase): have responsiveness
Odor of p-cresol
  cross-adaptation of p-cresol odor induced by test substance: induced

## OCCc1ccccc1 [phenyl ethyl alcohol (PEA), 2-phenylethanol]
OR5AN1
  activation of OR5AN1 response (fold increase): did not induce the response
OR1A1
  activation of OR1A1 response (fold increase): activated
Muscone odor
  cross-adaptation of muscone odor induced by test substance: did not induce the cross-adaptation
